Source: PMC6848146, “Binding and structural analyses of potent inhibitors of the human Ca^2+/calmodulin dependent protein kinase kinase 2 (CAMKK2) identified from a collection of commercially-available kinase inhibitors” (Scientific Reports, 2019)
pIC50: −log10 of the molar value. Like-named read-outs stand apart in the source and are kept apart here. Marks after values point to notes of the source that are not given here.

How the values were obtained:
[1] = biological target: T1, CAMKK2-KD (kinase domain of CAMKK2) (Homo sapiens, UniProt Q96RR4); assay: DSF thermal-shift screen, 384-well format; type: binding; conditions: 10 µM compound, 1 µM kinase, 0.1% DMSO, single measurement
T1 construct: the protein kinase domain (amino acids 161–449); hexahistidine (6xHis), TEV-cleavable; made in house
T1 sequence (Q96RR4 161-449): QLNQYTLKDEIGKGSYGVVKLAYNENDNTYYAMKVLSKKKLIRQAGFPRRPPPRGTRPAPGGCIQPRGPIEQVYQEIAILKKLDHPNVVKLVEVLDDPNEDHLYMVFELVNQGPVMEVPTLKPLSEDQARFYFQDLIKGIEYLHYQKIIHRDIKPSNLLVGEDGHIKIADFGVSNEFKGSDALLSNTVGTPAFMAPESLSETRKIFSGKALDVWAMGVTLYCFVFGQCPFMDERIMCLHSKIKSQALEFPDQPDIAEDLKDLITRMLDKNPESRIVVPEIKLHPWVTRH
Protocol: (§1) We employed a thermal-shift assay (Differential Scanning Fluorimetry, DSF)[19] to identify compounds that can bind to the kinase domain of CAMKK2 (CAMKK2-KD). Protein thermal denaturation curves (Fig. 1A,B) were used to calculate the denaturation midpoint temperature (Tm) for the kinase domain of CAMKK2 in the presence of ligands or vehicle only (DMSO). […] DSF screens were performed on purified CAMKK2-KD using a library of commercially available, chemically diverse, ATP-competitive, kinase inhibitors.
DSF experiments in 384-well format followed a protocol previously established at the SGC-UNICAMP and described elsewhere.
The compounds, previously solubilized in DMSO, were used at 10 µM final concentration and 0.1% DMSO. Plates were sealed using optically clear films and transferred to a QuantStudio 6 qPCR instrument (Applied Biosystems). […] Protein in 0.1% DMSO was used as a reference.
(§2) For both formats, experiments were performed in singlets.

[2] = biological target: T2, CAMKK2-FL (Homo sapiens, UniProt Q96RR4); assay: Radiometric enzymatic assay (Eurofins Discovery), Ca2+/Calmodulin present; type: biochemical; conditions: 90 µM ATP; single measurement
T2 construct: an enzymatic assay using the full-length protein (CAMKK2-FL); purchased Eurofins Discovery (MO, USA), assay service

[3] = biological target: T1, CAMKK2-KD (kinase domain of CAMKK2); assay: DSF thermal-shift screen, 96-well format; type: binding; conditions: for ΔTm at 12 µM: read-out: ΔTm
Protocol: as §1
SYPRO Orange dye (Invitrogen) was used in 5X as final concentration.
Plates were sealed using optically clear films and transferred to an Mx3005p RT-PCR machine (Agilent).
as §2

[4] = biological target: T3, CAMKK1-FL (Homo sapiens, UniProt Q8N5S9); assay: Radiometric enzymatic assay (Eurofins Discovery), Ca2+/Calmodulin present; type: biochemical; conditions: 200 µM ATP; single measurement
T3 construct: purchased Eurofins Discovery (MO, USA), assay service
Protocol: All compounds employed in this study were initially developed to target other human protein kinases, and some are known to be quite promiscuous[18],[21].
Reaction conditions for assays using CAMKK1-FL were: 8 mM MOPS pH 7.0, 0.2 mM EDTA, 0.33 mg/mL MBP (myelin basic protein), 0.5 mM calcium chloride, 0.016 mg/ml calmodulin, 10 mM magnesium acetate and [gamma-^33P-ATP] (200 µM). […] The reactions were initiated by the addition of a Mg^2+-ATP mixture. After incubation for 40 minutes at room temperature, the reaction was stopped by the addition of phosphoric acid to a final concentration of 0.5%. […] Following subtraction of the average inhibitor control well counts, results were expressed as a percentage of the mean kinase activity in the positive control sample.

[5] = biological target: CAMKK2-KD (Homo sapiens, UniProt Q96RR4); assay: Isothermal titration calorimetry (reverse titration); conditions: individual ITC experiment, 20 °C
Chain of CAMKK2-KD (Q96RR4 161-449): as above
Protocol: All ITC experiments described below were performed twice.
Measurements were made using a MicroCal AutoITC200 (Malvern, United Kingdom). […] Small molecule inhibitors were diluted in dialysis buffer. All ITC experiments were performed using a “reverse titration” setup in which the protein (in the syringe) was titrated into the cell containing the inhibitor. Two independent ITC measurements were performed for each compound, data for individual runs were integrated separately to obtain single isotherms, which were plotted and analyzed using Sedphat[37]. […] All measurements were made at 20 °C with mixing (1,000 rpm stirring), and used 1.5 µL injections and 180 s between each injection. NITPIC, SEDPHAT and GUSSI[37] were used to analyze and generate figures for ITC data.

[6] = 96-well format, 12 µM compound, 2 µM kinase, 2.5% DMSO, single measurement

## Cc1[nH]c(/C=C2\C(=O)Nc3ccc(S(=O)(=O)Cc4c(Cl)cccc4Cl)cc32)c(C)c1C(=O)N1CCC[C@@H]1CN1CCCC1 [PHA-665752]
[1]
  ΔTm at 10 µM: 4.9 °C

## Cc1cc(CN2CCN(c3c(Br)cnc4nc(-c5ccc(N6CCN(C)CC6)cc5)[nH]c34)CC2)no1 [CCT137690]
[1]
  ΔTm: 4.7 °C

## COc1cc2c(Oc3ccc(NC(=O)C4(C(=O)Nc5ccc(F)cc5)CC4)cc3F)ccnc2cc1OCCCN1CCOCC1 [Foretinib]
[1]
  ΔTm at 10 µM: 6.3 °C
[2]
  pIC50: 5.88

## Cn1cc(C2=C(c3cn(CCCSC(=N)N)c4ccccc34)C(=O)NC2=O)c2ccccc21 [BIM IX]
[3]; [6]
  ΔTm: 8.1 °C

## COc1cc(C(=O)NC2CCN(C)CC2)ccc1Nc1ncc2c(n1)N(C1CCCC1)CC(F)(F)C(=O)N2C [Ro3280]
[1]
  ΔTm: 4.5 °C

## CN1CCN(c2ccc3nc(-c4c(N)c5c(F)cccc5[nH]c4=O)[nH]c3c2)CC1 [Dovitinib]
[3]; [6]
  ΔTm at 12 µM: 6.9 °C

## CN(C)CCCn1cc(C2=C(c3c[nH]c4ccccc34)C(=O)NC2=O)c2ccccc21 [BIM I]
[3]; [6]
  ΔTm: 7.2^e °C
[4]
  pIC50: 5.59

## CS(=O)(=O)c1cccc(CNc2nc(Nc3ccc4c(c3)CCC(=O)N4)ncc2C(F)(F)F)c1 [PF-573228]
[1]
  ΔTm: 4.5 °C

## Nc1nc(Nc2ccc(S(N)(=O)=O)cc2)nn1C(=O)c1c(F)cccc1F [Aurora/Cdk Inhibitor]
[3]; [6]
  ΔTm: 4.3 °C

## CNC(=O)c1nn(C)c2c1C(C)(C)Cc1cnc(Nc3ccc(N4CCN(C)CC4)cc3)nc1-2 [Milciclib (PHA-848125), Milciclib]
[1]
  ΔTm at 10 µM: 7 °C

## CCS(=O)(=O)c1cccc(-c2cc(C(=O)NC3CCN(C)CC3)c(C)c3[nH]c4ncc(C)cc4c23)c1 [TAK-901]
[1]
  ΔTm at 10 µM: 4.7 °C

## CN(c1ncccc1CNc1nc(Nc2ccc3c(c2)CC(=O)N3)ncc1C(F)(F)F)S(C)(=O)=O [PF-562271]
[1]
  ΔTm: 4.2 °C

## CCS(=O)(=O)Nc1ccc2c(c1)/C(=C(/Nc1ccc(CN3CCCCC3)cc1)c1ccccc1)C(=O)N2 [Hesperadin]
[1]
  ΔTm at 10 µM: 7.3 °C

## CO[C@@H](C(=O)N1Cc2n[nH]c(NC(=O)c3ccc(N4CCN(C)CC4)cc3)c2C1)c1ccccc1 [Danusertib]
[1]
  ΔTm at 10 µM: 5.1 °C

## Cn1cc(/C=C2\C(=O)Nc3ccc(S(N)(=O)=O)cc32)c2ccccc21 [Syk Inhibitor]
[3]; [6]
  ΔTm: 9.4 °C

## C=CC(=O)Nc1cc(Nc2nccc(-c3cn(C)c4ccccc34)n2)c(OC)cc1N(C)CCN(C)C [AZD9291]
[1]
  ΔTm at 10 µM: 4.1 °C

## CNc1nc(Nc2cnn([C@H]3CCN(C4COC4)C[C@@H]3F)c2Cl)ncc1C(F)(F)F [GNE-9605]
[1]
  ΔTm: 6.4 °C

## CN(c1ccc(NC(=O)Nc2ccc(OC(F)(F)F)cc2)cc1)c1ccnc(Nc2cccc(S(N)(=O)=O)c2)n1 [GW806742X]
[3]
  ΔTm at 12 µM: 5.8 °C

## c1nc2nc(Nc3ccc(N4CCOCC4)cc3)nc(NC3CCCCC3)c2[nH]1 [Reversine]
[3]; [6]
  ΔTm at 12 µM: 4.6 °C

## Cc1ccc([N+](=O)[O-])cc1S(=O)(=O)N(C)/N=C/c1cnc2ccc(Br)cn12 [PIK-75]
[1]
  ΔTm: 7.2 °C

## O=C(NCCCNc1nc(Nc2cccc(NC(=O)N3CCCC3)c2)ncc1I)c1cccs1 [BX-795]
[1]
  ΔTm at 10 µM: 5.1 °C

## CCOc1cc2ncc(C#N)c(Nc3ccc(F)c(Cl)c3)c2cc1NC(=O)/C=C/CN(C)C [Pelitinib]
[1]
  ΔTm at 10 µM: 4.8 °C

## CCOc1ccn(-c2ccc(F)cc2)c(=O)c1C(=O)Nc1ccc(Oc2ccnc(N)c2Cl)c(F)c1 [BMS-777607]
[1]
  ΔTm at 10 µM: 4.7 °C

## Cc1cc(Nc2nc(N[C@@H](C)c3ccc(F)cc3)c(C#N)cc2F)[nH]n1 [AZ 960]
[1]
  ΔTm at 10 µM: 4.3 °C

## CC[C@@H]1C(=O)N(C)c2cnc(Nc3ccc(C(=O)N[C@H]4CC[C@H](N5CCN(CC6CC6)CC5)CC4)cc3OC)nc2N1C(C)C [BI 6727, Volasertib]
[1]
  ΔTm at 10 µM: 6 °C
[2]
  pIC50: 7.36
[4]
  pIC50: 7.06

## O=C(c1ccc(Nc2nccc(-c3cc4ccccc4s3)n2)cc1)N1CCC(N2CCCC2)CC1 [IKK 16]
[3]; [6]
  ΔTm: 6.8 °C

## Cc1cc(Nc2cc(CN3CCOCC3)c3nc(C)c(Cc4ccc(Cl)cc4F)n3n2)n[nH]1 [LY2784544]
[1]
  ΔTm at 10 µM: 4.3 °C

## Cc1[nH]nc2ccc(-c3cncc(OC[C@@H](N)Cc4ccccc4)c3)cc12 [A-674563]
[1]
  ΔTm: 4.7 °C

## Cc1cc(Nc2ncc(Cl)c(Nc3ccccc3S(=O)(=O)C(C)C)n2)c(OC(C)C)cc1C1CCNCC1 [LDK378]
[1]
  ΔTm at 10 µM: 8 °C

## O=C(O)c1ccc(-c2c[nH]c3ncc(-c4ccccc4)cc23)cc1C1CCCC1 [GSK650394]
[1]
  ΔTm at 10 µM: 16.2 °C
[5]; run 1
  ΔG Run 1: -11 kcal/mol
  ΔH Run 1: -20.9 kcal/mol
[5]; run 2
  ΔG Run 2: -10.9 kcal/mol
  ΔH Run 2: -18.9 kcal/mol

## O=C1c2ccccc2-c2n[nH]c3cccc1c23 [JNK Inhibitor II]
[3]; [6]
  ΔTm: 6.8 °C

## C[C@@H](Oc1cc(-n2cnc3ccc(OC[C@@H](O)CO)cc32)sc1C(N)=O)c1ccccc1Cl [GSK978744A]
[3]; [6]
  ΔTm at 12 µM: 4.9 °C

## COc1cc2c(Nc3cc(Cl)c(OC)c(Cl)c3)c(C#N)cnc2cc1OCCCN1CCN(C)CC1 [Bosutinib isomer]
[3]; [6]
  ΔTm: 4.1 °C

## C1=C/COCc2cc(ccc2OCCN2CCCC2)Nc2nccc(n2)-c2cccc(c2)COC/1 [Pacritinib (SB1518), Pacritinib]
[1]
  ΔTm at 10 µM: 7.8 °C

## Cc1nc(N)sc1-c1ccnc(Nc2ccc(N3CCOCC3)cc2)n1 [CYC116]
[1]
  ΔTm at 10 µM: 4.4 °C

## CCOC(=O)c1cnc2ccc(-c3cncc(NS(=O)(=O)c4ccccc4)c3)cn12 [HS-173]
[1]
  ΔTm: 4.2 °C

## COc1cc(N2CCC(N)CC2)ccc1Nc1ncc(Cl)c(-c2c[nH]c3ccccc23)n1 [AZD3463]
[1]
  ΔTm: 9.3 °C

## C=CC(=O)Nc1cccc(Sc2nc(Nc3ccc(N4CCN(C)CC4)cc3)ncc2Cl)c1 [WZ8040]
[1]
  ΔTm: 4.8 °C

## CNC(=O)c1ccccc1Nc1nc(Nc2ccc(N3CCOCC3)cc2OC)ncc1Cl [TAE226]
[1]
  ΔTm: 7.5^d °C
[4]
  pIC50: 6.40

## O=C1Nc2ccccc2/C1=C1/Nc2ccccc2/C1=N\O [Indirubin-3monoxime]
[3]; [6]
  ΔTm: 5.4 °C

## C=CC(=O)Nc1cccc(Nc2nc(Nc3ccc(N4CCN(C(C)=O)CC4)cc3OC)ncc2C(F)(F)F)c1 [CO-1686]
[1]
  ΔTm at 10 µM: 4.4 °C

## COc1ccc2c(c1)/C(=C/c1cnc[nH]1)C(=O)N2 [SU9516]
[3]; [6]
  ΔTm at 12 µM: 5 °C

## JAK Inhibitor I
[3]; [6]
  ΔTm: 4.7 °C

## N#CCNC(=O)c1ccc(-c2ccnc(Nc3ccc(N4CCOCC4)cc3)n2)cc1 [CYT387]
[1]
  ΔTm at 10 µM: 4.3 °C

## CCN1CCN(Cc2ccc(Nc3ncc(F)c(-c4cc(F)c5nc(C)n(C(C)C)c5c4)n3)nc2)CC1 [LY2835219]
[1]
  ΔTm at 10 µM: 6.2 °C

## COc1cc(N2CCC(N3CCN(C)CC3)CC2)ccc1Nc1ncc(Cl)c(Nc2ccccc2S(=O)(=O)C(C)C)n1 [TAE684]
[3]; [6]
  ΔTm at 12 µM: 16.3 °C

## O=C1NCCCc2c1oc1ccc(O)cc21 [CID 755673]
[3]; [6]
  ΔTm: 4.4 °C

## Cc1nc(Nc2[nH]nc3c2CN(C(=O)N[C@H](CN(C)C)c2ccccc2)C3(C)C)c2sccc2n1 [PF-3758309]
[1]
  ΔTm at 10 µM: 4.4 °C

## CC1(COc2ccc3c(c2)ncn3-c2ccc3cccc(N4CCC(N)CC4)c3n2)COC1 [Crenolanib (CP-868596), Crenolanib]
[1]
  ΔTm at 10 µM: 10.6 °C
[2]
  pIC50: 7.68
[4]
  pIC50: 7.09

## CC(C)n1cnc2c(Nc3cccc(Cl)c3)nc(NCCO)nc21 [NG 52 (Compound 52)]
[3]; [6]
  ΔTm: 6.8 °C

## O=C1NC(=O)/C(=C/c2ccc3nccc(-c4ccncc4)c3c2)S1 [GSK1059615]
[1]
  ΔTm at 10 µM: 4.4 °C

## c1ccc(-c2cnc(Nc3ccc(OCCN4CCCC4)cc3)s2)cc1 [Flt3 Inhibitor III]
[3]; [6]
  ΔTm: 7.5 °C
